Test system: Onchocerca gutturosa Adult Male Worms
Assay: Onchocerciasis in vitro screening model, worm motility score
Type: cell-based
Settings: in vitro; Onchocerca gutturosa adult male worms; class A/B/C; read-out: O. gutturosa activity level (IC50 or MED)

| Compound | IC50 |
| --- | --- |
| COc1cnc(Nc2nc(-c3cc(C(N)=O)c(OC(C)C)cn3)ns2)c(C(F)(F)F)c1 [Compound 253, 5-isopropoxy-2-(5-(5-methoxy-3-(trifluoro-methyl)pyridin-2-ylamino)-1,2,4-thiadiazol-3-yl)isonico-tinamide] | 500 to 5000 nM |
| Cc1cnc(Nc2nc(-c3cc(C(=O)N(C)C)c(OC(C)C)cn3)ns2)c(C(F)(F)F)c1 [Compound 254, 5-isopropoxy-N,N-dimethyl-2-(5-(5-methyl-3-(trifluoromethyl)pyridin-2-ylamino)-1,2,4-thiadiazol-3-yl)isonico-tinamide] | 500 to 5000 nM |
| COc1ccc(-c2nnc(Nc3cc(OC(C)C)ccn3)o2)nc1 [Compound 255, N-(4-isoprop-oxypyridin-2-yl)-5-(5-methoxy-pyridin-2-yl)-1,3,4-oxadiazol-2-amine] | 500 to 5000 nM |
| COc1ccc(-c2nnc(Nc3cc(OC(C)C)ccn3)[nH]2)nc1 [Compound 257, 4-isopropoxy-N-(5-(5-methoxy-pyridin-2-yl)-4H-1,2,4-triazol-3-yl)pyridin-2-amine] | 500 to 5000 nM |
| Cc1cccnc1Nc1nnc(-c2ccc(OC3CCOCC3)cn2)[nH]1 [Compound 258, 3-methyl-N-(5-(5-(tetrahydro-2H-pyran-4-yloxy)pyridin-2-yl)-4H-1,2,4-triazol-3-yl) pyridin-2-amine] | < 200 nM |
| CC(C)Oc1cnc(-c2nsc(Nc3ncccc3C(=O)N(C)C)n2)cc1C(F)F [Compound 260, 2-(3-(4-(difluoro-methyl)-5-isopropoxy-pyridin-2-yl)-1,2,4-thiadiazol-5-ylamino)-N,N-dimethyl-nicotinamide] | 500 to 5000 nM |
| CC(=O)N(C)c1cccnc1Nc1nc(-c2cc(C(F)F)c(OC(C)C)cn2)ns1 [Compound 261, N-(2-(3-(4-(difluoromethyl)-5-isopropoxy-pyridin-2-yl)-1,2,4-thiadiazol-5-ylamino)pyridin-3-yl)-N-methylacetamide] | 500 to 5000 nM |
| CC(C)Oc1ccc(-c2nsc(Nc3ncccc3C(=O)N(C)C3CC3)n2)nc1 [Compound 262, N-cyclo-propyl-2-(3-(5-isopropoxy-pyridin-2-yl)-1,2,4-thiadiazol-5-ylamino)-N-methyl-nicotinamide] | 500 to 5000 nM |
| CC(C)Oc1cnc(-c2nsc(Nc3ncccc3C(=O)N(C)C3CC3)n2)cc1C(F)(F)F [Compound 263, N-cyclo-propyl-2-(3-(5-isopropoxy-4-(trifluoro-methyl)pyridin-2-yl)-1,2,4-thiadiazol-5-ylamino)-N-methyl-nicotinamide] | 500 to 5000 nM |
| COc1cnc(Nc2nc(-c3cc(C(=O)N(C)C)c(OC(C)C)cn3)ns2)c(C(F)(F)F)c1 [Compound 264, 5-isopropoxy-2-(5-(5-methoxy-3-(trifluoro-methyl)pyridin-2-ylamino)-1,2,4-thiadiazol-3-yl)-N,N-dimethyliso-nicotinamide] | 500 to 5000 nM |
| Cc1cccnc1Nc1nc(-c2ccc(OC3CCN(C(=O)C(C)C)CC3)cn2)ns1 [Compound 265, 2-methyl-1-(4-(6-(5-(3-methylpyridin-2-ylamino)-1,2,4-thiadiazol-3-yl)pyridin-3-yloxy)piperidin-1-yl)propan-1-one] | 500 to 5000 nM |
| CC(=O)N1CCC(Oc2ccc(-c3nsc(Nc4ncccc4C)n3)nc2)CC1 [Compound 266, 1-(4-(6-(5-(3-methyl-pyridin-2-ylamino)-1,2,4-thiadiazol-3-yl)pyridin-3-yloxy)piperidin-1-yl)ethanone] | 500 to 5000 nM |
| CC(=O)N1CCc2cc(-c3nsc(Nc4ncccc4C(F)(F)F)n3)ncc21 [Compound 267, 1-(5-(5-(3-(trifluoromethyl)pyridin-2-ylamino)-1,2,4-thiadiazol-3-yl)-2,3-dihydro-1H-pyrrolo[2,3-c]pyridin-1-yl)ethanone] | 500 to 5000 nM |
| CC(=O)N(C)c1cc(C(F)(F)F)cnc1Nc1nc(-c2cc(C(F)(F)F)c(OC(C)C)cn2)ns1 [Compound 268, N-(2-(3-(5-isopropoxy-4-(trifluoromethyl)pyridin-2-yl)-1,2,4-thiadiazol-5-ylamino)-5-(trifluoromethyl)pyridin-3-yl)-N-methylacetamide] | 500 to 5000 nM |
| CC(=O)N(C)c1cnc(-c2nsc(Nc3ncccc3C)n2)cc1C [Compound 270, N-methyl-N-(4-methyl-6-(5-(3-methylpyridin-2-ylamino)-1,2,4-thiadiazol-3-yl)pyridin-3-yl)acetamide] | 500 to 5000 nM |
| CC(=O)N(C)c1cccnc1Nc1nc(-c2cc3c(cn2)OC(C)(C)C3)ns1 [Compound 271, N-(2-(3-(2,2-dimethyl-2,3-dihydrofuro [2,3-c]pyridin-5-yl)-1,2,4-thiadiazol-5-ylamino)pyridin-3-yl)-N-methylacetamide] | 500 to 5000 nM |
| CC(=O)N(C)c1cc(C(F)(F)F)cnc1Nc1nc(-c2cc3c(cn2)OC(C)(C)C3)ns1 [Compound 272, N-(2-(3-(2,2-dimethyl-2,3-dihydrofuro [2,3-c]pyridin-5-yl)-1,2,4-thiadiazol-5-ylamino)-5-(trifluoromethyl)pyridin-3-yl)-N-methylacetamide] | 200 to 500 nM |

| Compound | IC50 |
| --- | --- |
| CC(=O)N(C)c1cc(C(F)(F)F)cnc1Nc1nc(-c2cc3c(cn2)N(C(C)C)CC3)ns1 [Compound 273, N-(2-(3-(1-isopropyl-2,3-dihydro-1H-pyrrolo[2,3-c]pyridin-5-yl)-1,2,4-thiadiazol-5-ylamino)-5-(trifluoromethyl)pyridin-3-yl)-N-methylacetamide] | 200 to 500 nM |
| Cc1cnc(Nc2nc(-c3cc(OC4COC4)ccn3)ns2)c(C(F)(F)F)c1 [Compound 275, N-(5-methyl-3-(trifluoromethyl)pyridin-2-yl)-3-(4-(oxetan-3-yloxy)pyridin-2-yl)-1,2,4-thiadiazol-5-amine] | 500 to 5000 nM |
| COC(=O)c1cccnc1Nc1nc(-c2ccc(OC(C)C)cn2)ns1 [Compound 276, methyl 2-(3-(5-isopropoxy-pyridin-2-yl)-1,2,4-thiadiazol-5-ylamino) nicotinate] | 500 to 5000 nM |
| Cc1cccnc1Nc1nc(-c2ccc(C(=O)N(C)C)cn2)no1 [Compound 277, N,N-dimethyl-6-(5-(3-methylpyridin-2-ylamino)-1,2,4-oxadiazol-3-yl)nicotinamide] | 500 to 5000 nM |
| Cc1cccnc1Nc1nc(-c2ccc(C#N)cn2)ns1 [Compound 278, 6-(5-(3-methylpyridin-2-ylamino)-1,2,4-thiadiazol-3-yl)nicotinonitrile] | 500 to 5000 nM |
| CC(=O)N(C)c1cnc(Nc2nc(-c3ncccc3OC(C)C)ns2)c(C(F)(F)F)c1 [Compound 279, N-(6-(3-(3-isopropoxy-pyridin-2-yl)-1,2,4-thiadiazol-5-ylamino)-5-(trifluoro-methyl)pyridin-3-yl)-N-methylacetamide] | 500 to 5000 nM |
| CC(=O)N(C)c1cc(C(F)(F)F)cnc1Nc1nc(-c2cc3c(cn2)NC(=O)C3(C)C)ns1 [Compound 280, N-(2-(3-(3,3-dimethyl-2-oxo-2,3-dihydro-1H-pyrrolo[2,3-c]pyridin-5-yl)-1,2,4-thiadiazol-5-ylamino)-5-(trifluoromethyl)pyridin-3-yl)-N-methylacetamide] | 500 to 5000 nM |
| CC(C)Oc1cccnc1-c1nsc(Nc2ncc(C(F)(F)F)cc2C(=O)N(C)C)n1 [Compound 281, 2-(3-(3-isoprop-oxypyridin-2-yl)-1,2,4-thiadiazol-5-ylamino)-N,N-dimethyl-5-(trifluoromethyl) nicotinamide] | 500 to 5000 nM |
| CC(=O)N(C)c1cnc(Nc2nc(-c3cc(OC(C)C)ccn3)ns2)c(C(F)(F)F)c1 [Compound 285, N-(6-(3-(4-isopropoxy-pyridin-2-yl)-1,2,4-thiadiazol-5-ylamino)-5-(trifluoromethyl)pyridin-3-yl)-N-methylacetamide] | 500 to 5000 nM |
| CC(C)Oc1ccc(-c2nsc(Nc3ncc(C(F)(F)F)cc3S(=O)(=O)N(C)C)n2)nc1 [Compound 286, 2-(3-(5-isopropoxy-pyridin-2-yl)-1,2,4-thiadiazol-5-ylamino)-N,N-dimethyl-5-(trifluoromethyl) pyridine-3-sulfonamide] | 500 to 5000 nM |
| CC(=O)N(C)c1cc(C(F)(F)F)cnc1Nc1nc(-c2cc3c(cn2)N(C)C(=O)C3(C)C)ns1 [Compound 287, N-methyl-N-(5-(trifluoromethyl)-2-(3-(1,3,3-trimethyl-2-oxo-2,3-dihydro-1H-pyrrolo[2,3-c]pyridin-5-yl)-1,2,4-thiadiazol-5-ylamino)pyridin-3-yl)acetamide] | 500 to 5000 nM |
| CC(=O)N(C)c1cnc(Nc2nc(-c3cc(OC(C)C)ccn3)ns2)c(C)c1 [Compound 288, N-(6-(3-(4-isopropoxypyridin-2-yl)-1,2,4-thiadiazol-5-ylamino)-5-methylpyridin-3-yl)-N-methylacetamide] | 500 to 5000 nM |
| CC(=O)N(C)c1cc(C(F)(F)F)cnc1Nc1nc(-c2cc3c(cn2)N(C)C(C)(C)C3)ns1 [Compound 291, N-methyl-N-(5-(trifluoromethyl)-2-(3-(1,2,2-trimethyl-2,3-dihydro-1H-pyrrolo[2,3-c]pyridin-5-yl)-1,2,4-thiadiazol-5-ylamino)pyridin-3-yl)acetamide] | < 200 nM |
| CN(C)C(=O)c1cc(C(F)(F)F)cnc1Nc1nc(-c2cc3c(cn2)N(C)C(=O)C3(C)C)ns1 [Compound 292, N,N-dimethyl-5-(trifluoromethyl)-2-(3-(1,3,3-trimethyl-2-oxo-2,3-dihydro-1H-pyrrolo[2,3-c]pyridin-5-yl)-1,2,4-thiadiazol-5-ylamino) nicotinamide] | 500 to 5000 nM |
| CN(C)C(=O)c1cc(C(F)(F)F)cnc1Nc1nc(-c2cc3c(cn2)N(C)C(C)(C)C3)ns1 [Compound 293, N,N-dimethyl-5-(trifluoromethyl)-2-(3-(1,2,2-trimethyl-2,3-dihydro-1H-pyrrolo[2,3-c]pyridin-5-yl)-1,2,4-thiadiazol-5-ylamino) nicotinamide] | < 200 nM |
| CC(=O)N(C)c1cnc(Nc2n[nH]c(-c3cc4c(cn3)N(C(C)C)CC4)n2)c(C(F)(F)F)c1 [Compound 294, N-(6-(5-(1-isopropyl-2,3-dihydro-1H-pyrrolo[2,3-c]pyridin-5-yl)-1H-1,2,4-triazol-3-ylamino)-5-(trifluoromethyl)pyridin-3-yl)-N-methylacetamide] | 500 to 5000 nM |

Reference: patent US11505548B2, “Heterocyclic compounds and their use for treatment of helminthic infections and diseases” (Celgene Corporation, priority 2019, dated 2022)
